The assay deals with 695427-040-R-J1-PDC complex spheroids, viability percent T/C. Put plainly: Anticancer human tumor 695427-040-R-J1-PDC patient-derived colon adenocarcinoma cell line growth inhibition [GQUAD]. Particulars: for viability, T/C: stronger effect = lower value; for IC50: curve of compound. An excerpt: DNA G-quadruplex Stabilizer Agents in Combinations in Complex Spheroids
A high-throughput screen of multi-cell type tumor spheroids was designed to identify active combinations of DNA G-quadruplex stabilizer agents and targeted small molecules. Complex spheroids include a stromal component modeled by human endothelial cells (HUVEC) and fibroblasts modeled by human mesenchymal stem cells (MSCs). The concentration ranges selected for each drug and investigational agent were based upon clinically achievable concentrations if the clinical Cmax of the agent was known.
Compounds. The drugs and investigational agents: pidnarulex (CX-5461; NSC782164), APTO-253 (NSC789042), BRACO-19 (NSC847499), peposertib (NSC802822), ceralasertib (NSC780249), elimusertib (NSC800525), camonsertib (NSC841442), AZD-1390 (NSC803789), olaparib (NSC753686), talazoparib (NSC767125), ART-558 (NSC835418), sotorasib (NSC818433), MRTX-1133 (NSC836407), SN-38 (NSC673596), topotecan (NSC609699), etoposide (NSC141540), doxorubicin (NSC123127), gemcitabine (NSC613327), 5-fluorouracil (NSC19893), paclitaxel (NSC125973), vemurafenib (NSC761431), panobinostat (NSC761190), R-306465 (JNJ-16241199; NSC773264), adavosertib (NSC754352), TP-3654 (NSC805149), carboplatin (NSC241240), KSQ-4279 (NSC840948), and staurosporine (NSC755774) were obtained from the National Cancer Institute (NCI) Developmental Therapeutics Program Chemical Repository (34). The FDA-approved anticancer drug set is available from the NCI Developmental Therapeutics Program. […] The stock solutions were prepared in dimethyl sulfoxide (DMSO, Sigma-Aldrich, St. Louis, MO, cat. D2650) at 800-fold the tested concentration and stored at -70 degrees C prior to their use. All drugs and investigational agents were tested over a range starting from a high concentration at or near the clinical Cmax and decreasing in half-log increments. If the clinical Cmax for an agent had not been determined, the highest concentration tested was 10 microM.
2.3 Cell Culture. All cells were maintained in an incubator at 37 degrees C and 5% CO2 with 95% humidity. The PDC lines were cultured according to standard operating procedures established by the NCI PDMR. All PDCs were thawed and cultured in Matrigel-coated flasks prepared with a working solution of 1X Ham's F-12 nutrient mix, without supplementation (Invitrogen, cat. 11765054), 100 U/mL penicillin-streptomycin (Invitrogen, cat. 15140122), and 2.5% Matrigel (Corning Inc., cat. 354248) for the first three passages. The 857933-349-R-J2-PDC line was cultured in 6C/Colon 1B media, which includes advanced DMEM/F-12 (Thermo Fisher Scientific, cat. 12634028), 10 mM HEPES (Thermo Fisher Scientific, cat. 15630080), 1X GlutaMAX supplement (Thermo Fisher Scientific, cat. 35050061), 0.1 mg/mL primocin (InvivoGen, cat. ant-pm-2), 10% defined fetal bovine serum, heat inactivated (HyClone Laboratories Inc., cat. SH30070.03HI), 50% L-WRN conditioned media (ATCC, cat. CRL-3276), 1.25 mM N-Acetyl-L-cysteine (Sigma-Aldrich, cat. A9165), 10 mM nicotinamide (Sigma-Aldrich, cat. N0636), 1X B-27 supplement (Thermo Fisher Scientific, cat. 17504044), 1X N-2 supplement (Thermo Fisher Scientific, cat. 17502048), 10 microM Y-27632 dihydrochloride (Tocris Bioscience, cat. 1254), and 50 ng/mL human EGF recombinant protein (Thermo Fisher Scientific, cat. PHG0311). The 485176-168-R4-J1-PDC line was cultured in Panc media, which includes all 6C/Colon 1B media components plus 100 ng/mL human FGF-10 (Thermo Fisher Scientific, cat. 100-26), 500 nM SB-431542 (Selleckchem, cat. S1067), and gastrin (Tocris, cat. 3006).
[…]

Structures are written as SMILES. “And” between values parts separate entries of the source, which are not always exact repeats. Identical values can stand only once.
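Also: spheroids exposed to compounds for seven days before readout.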

As for `CC(C)n1c(=O)n(C)c2cnc3cc(F)c(-c4ccc(OCCCN5CCCCC5)nc4)cc3c21`, the 50% inhibitory concentration (IC50) was > 10 µM. Also, the viability, T/C (compound 0.0316 µM) was 97.4% and 115% and 95.5%. In addition, the viability, T/C (compound 0.1 µM) was 102% and 97.8% and 101%. Besides, for the setting “compound 0.316 µM”, the viability, T/C was 110% and 102% and 97.8%. Also, the viability, T/C (compound 1 µM) is 118% and 115% and 110%. Also, the viability, T/C (compound 3.16 µM) was 74% and 109% and 84.6%. Also, the viability, T/C (compound 10 µM) is 57.9% and 69.9% and 56.8%.
On to `Nc1ccn(C2OC(CO)C(O)C2(F)F)c(=O)n1` (stereo not given), for which the 50% inhibitory concentration (IC50) is > 10 µM and 4.78 µM. For the same compound, the viability, T/C (compound 0.0316 µM) was 81.8% and 90.5% and 89.3%. Moreover, for the setting “compound 0.1 µM”, the viability, T/C is 77.1% and 75.9% and 76.4%. In addition, for the setting “compound 0.316 µM”, the viability, T/C was 72.5% and 81.7% and 66.8%. The viability, T/C (compound 1 µM) was 64.7% and 73.6% and 62.1%. The viability, T/C (compound 3.16 µM) is 51.1% and 69.9% and 47%. In addition, the viability, T/C (compound 10 µM) was 54.9% and 64.9% and 48.6%.
As to `Cn1ncnc1[C@H]1c2n[nH]c(=O)c3cc(F)cc(c23)N[C@@H]1c1ccc(F)cc1`, the half-maximal inhibitory concentration (IC50) was > 0.316 µM. The viability, T/C (compound 0.000999 µM) was 93.3% and 88.5% and 90.8%. Further, the viability, T/C (compound 0.00316 µM) was 80.2% and 90.7% and 85.4%. Also, where the note is “compound 0.00999 µM”, the viability, T/C was 88.3% and 95.7% and 109%. Further, the viability, T/C (compound 0.0316 µM) is 108% and 98.7% and 87.9%. Further, under “compound 0.0999 µM”, the viability, T/C was 99.3% and 102% and 82.7%. Besides, where the note is “compound 0.316 µM”, the viability, T/C was 69.6% and 93.1% and 74.3%.
As for `C#Cc1c(F)ccc2cc(O)cc(-c3ncc4c(N5CC6CCC(C5)N6)nc(OCC56CCCN5CC(F)C6)nc4c3F)c12` (stereo not given), the half-inhibitory concentration (IC50) was > 10 µM and 1.76 µM. Also, the viability, T/C (compound 0.0316 µM) is 95.2% and 101% and 104%. The viability, T/C (compound 0.1 µM) is 102% and 103% and 111%. For the setting “compound 0.316 µM”, the viability, T/C was 95.2% and 99.6% and 102%. Also, where the note is “compound 1 µM”, the viability, T/C is 94.3% and 81.3% and 97.2%. Moreover, for the setting “compound 3.16 µM”, the viability, T/C is 56.7% and 17.5% and 103%. Where the note is “compound 10 µM”, the viability, T/C was 59% and 15.6% and 82.1%.
With `Cc1cnc(CNC(=O)c2c(=O)c3ccc(N4CCCN(C)CC4)nc3n3c2sc2ccccc23)cn1`, the viability, T/C runs as follows: (compound 0.0316 µM) 95.8% [middle of 12 runs]; (compound 0.1 µM) 91.6% [middle of 12 runs]; (compound 0.316 µM) 85.3% [middle of 12 runs]; (compound 1 µM) 76.2% [middle of 12 runs]; (compound 3.16 µM) 58% [middle of 12 runs]; (compound 10 µM) 44.7% [middle of 12 runs].
Consider `C=CC(=O)N1CCN(c2nc(=O)n(-c3c(C)ccnc3C(C)C)c3nc(-c4c(O)cccc4F)c(F)cc23)C(C)C1` (stereo not given), for which the half-inhibitory concentration (IC50) is > 10 µM. In addition, the viability, T/C (compound 0.0316 µM) was 97.2% and 103% and 104%. Further, the viability, T/C (compound 0.1 µM) is 93.4% and 97.8% and 82.5%. In addition, the viability, T/C (compound 0.316 µM) was 103% and 101% and 102%. In addition, the viability, T/C (compound 1 µM) is 98.8% and 105% and 85.6%. For the setting “compound 3.16 µM”, the viability, T/C is 92.6% and 110% and 68.9%. The viability, T/C (compound 10 µM) was 90.5% and 106% and 97.2%.
On to `Cc1cccc(N(C)C(=O)C2C(O)CCN2c2nc(C)cc(C(F)(F)F)c2C#N)c1` (stereo not given), for which the IC50 is > 10 µM. Further, the viability, T/C (compound 0.0316 µM) was 109% and 104% and 116%. In addition, where the note is “compound 0.1 µM”, the viability, T/C was 90.7% and 90.4% and 93.4%. Further, the viability, T/C (compound 0.316 µM) was 88.3% and 106% and 102%. For the same compound, the viability, T/C (compound 1 µM) is 101% and 94.8% and 87.2%. Besides, the viability, T/C (compound 3.16 µM) is 85.2% and 105% and 78.1%. Further, the viability, T/C (compound 10 µM) is 87.4% and 90.2% and 74.4%.
Take `CCc1c2c(nc3ccc(O)cc13)-c1cc3c(c(=O)n1C2)COC(=O)[C@]3(O)CC`: the IC50 was 0.175 µM and > 0.316 µM and 0.0507 µM. Also, the viability, T/C (compound 0.000999 µM) was 94.6% and 102% and 82.8%. In addition, the viability, T/C (compound 0.00316 µM) was 74.4% and 96.6% and 88.9%. Also, where the note is “compound 0.00999 µM”, the viability, T/C was 82.1% and 85% and 83.3%. For the setting “compound 0.0316 µM”, the viability, T/C was 73.2% and 80.9% and 61%. Moreover, the viability, T/C (compound 0.0999 µM) was 54.9% and 68.1% and 33.5%. Moreover, the viability, T/C (compound 0.316 µM) is 41.9% and 54.7% and 34.1%.

What is called viability, T/C is the ratio of treated to control. In general, IC50 refers to the concentration that inhibits the measured activity by half.

Source of the values: PubChem BioAssay AID2060492 (Molecular Pharmacology Branch, DTP, NCI, 2025).
